In paper doi:10.1101/2020.02.07.939504v1 (biorxiv, 2020):
Like-named read-outs stand apart in the source and are kept apart here.

Key:
iAChSnFR0.4 = assay: fluorescence titration of purified sensor; format: binding, Thermoanaerobacter sp.; details: read-out: apparent Kd; 200 nM purified sensor
iAChSnFR (iAChSnFR0.9) = details: 200 nM soluble purified sensor
X513-OpuBC = assay: isothermal titration calorimetry; format: binding, Thermoanaerobacter sp. X513; details: 25 °C, PBS, single experiment
y-iAChSnFR = details: 200 nM purified sensor

SMILES | Kd (iAChSnFR0.4) [µM] | Kd (iAChSnFR (iAChSnFR0.9); read-out: apparent Kd) [µM] | Kd (X513-OpuBC; fit with fixed N = 1) [µM] | Kd (y-iAChSnFR) [µM] | Kd (X513-OpuBC; variable stoichiometry fit, N = 0.55) [µM] | Kd (iAChSnFR (iAChSnFR0.9); read-out: affinity) [µM]
CC(=O)OCC[N+](C)(C)C [acetylcholine] | 220 ± 16 | 1.3 ± 1 | 95 | 0.5 |  | 
C[N+](C)(C)CCO [choline] |  | 45 ± 1.1 |  | 20 | 8 | 
NCCc1c[nH]c2ccc(O)cc12 [serotonin] |  |  |  |  |  | > 1000
